Assay [1] has as its system NF-κB pathway. In words: TNF-α assay (THP-1 cells differentiated to macrophages with IFN-γ, NF-κB pathway activated with LPS; ELISA). The format is cell-based, Human. The settings on record: compound 30 min, 50 ng/mL LPS 3 hours. The method, boiled down: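 THP-1 cells differentiated with 25 ng/mL IFN-γ for 24 h, then 30 min with compounds in serum-free medium. NF-κB activated with 50 ng/mL LPS, 3 h at 37 °C. Supernatant TNF-α by ELISA; IC50 from four-parameter logistic fit of % inhibition.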

For assay [2], the target named is T1, NLRP3 inflammasome (Homo sapiens, UniProt Q96P20).
T1 construct: IL-1beta HTRF
T1 sequence (Q96P20 whole entry): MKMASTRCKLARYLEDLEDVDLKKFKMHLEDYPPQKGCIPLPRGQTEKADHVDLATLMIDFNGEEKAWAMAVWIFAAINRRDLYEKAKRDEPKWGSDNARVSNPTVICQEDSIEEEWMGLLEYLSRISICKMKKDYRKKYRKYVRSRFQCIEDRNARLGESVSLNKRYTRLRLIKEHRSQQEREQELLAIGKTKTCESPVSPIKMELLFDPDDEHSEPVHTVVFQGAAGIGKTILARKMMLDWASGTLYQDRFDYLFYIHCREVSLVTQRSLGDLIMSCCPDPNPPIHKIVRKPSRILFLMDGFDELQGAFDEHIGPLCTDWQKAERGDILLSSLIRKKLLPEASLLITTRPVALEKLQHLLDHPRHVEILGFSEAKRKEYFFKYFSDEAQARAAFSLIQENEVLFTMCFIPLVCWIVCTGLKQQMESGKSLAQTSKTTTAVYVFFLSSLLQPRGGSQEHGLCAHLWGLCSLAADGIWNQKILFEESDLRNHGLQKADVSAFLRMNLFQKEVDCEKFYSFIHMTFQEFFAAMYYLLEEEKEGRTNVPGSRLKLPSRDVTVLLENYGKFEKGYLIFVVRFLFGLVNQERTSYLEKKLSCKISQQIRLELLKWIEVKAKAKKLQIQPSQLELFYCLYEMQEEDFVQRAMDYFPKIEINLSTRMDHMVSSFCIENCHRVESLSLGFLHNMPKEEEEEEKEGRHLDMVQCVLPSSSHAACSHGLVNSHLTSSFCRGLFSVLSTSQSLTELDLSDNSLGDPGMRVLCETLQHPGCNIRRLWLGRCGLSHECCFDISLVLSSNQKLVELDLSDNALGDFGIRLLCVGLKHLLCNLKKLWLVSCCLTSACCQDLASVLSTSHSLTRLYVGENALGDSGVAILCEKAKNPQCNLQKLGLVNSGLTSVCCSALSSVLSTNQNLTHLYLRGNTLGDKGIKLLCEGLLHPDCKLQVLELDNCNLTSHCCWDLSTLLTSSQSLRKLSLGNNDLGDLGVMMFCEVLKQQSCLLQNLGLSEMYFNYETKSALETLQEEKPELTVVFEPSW
In words: IL-1β TR-FRET assay (THP-1 cells differentiated to macrophages with IFN-γ, LPS primed, ATP activated; HTRF). It is filed as cell-based. The settings on record: THP-1 macrophages, 50 ng/mL LPS priming, compound 30 min, 20 mM ATP 2 hours. The method, boiled down:
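THP-1 cells differentiated with 25 ng/mL IFN-γ for 24 h, primed with 50 ng/mL LPS in serum-free medium for 24 h, then treated with compounds for 30 min before 20 mM ATP activation for 2 h at 37 °C. Secreted IL-1β quantified by HTRF; IC50 from logistic fit of % inhibition.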

The mark [3] stands for this setting: Homo sapiens, THP-1, THP-1 macrophages.

29 compounds from patent US20260365671A1, “HETEROCYCLIC COMPOUND” (Takeda Pharmaceutical Company Limited, priority 2022, published 2026) can be followed below.

pIC50: −log10 of the molar value.

As to `CCc1cc(C)c(-n2cc3sc(N[C@@H]4C[C@@H](F)CN(C)C4)nc3n2)c(O)c1` [Example 60, 5-ethyl-2-(5-{[(3R,5R)-5-fluoro-1-methylpiperidin-3-yl]amino}-2H-pyrazolo[3,4-d][1,3]thiazol-2-yl)-3-methylphenol], the pIC50 in assay [1] (setting [3]) is below 4.52; in assay [2] it was 7.21.

Turning to `COCCN(C)c1nc2nn(-c3c(C)cc(C)cc3O)cc2s1` [Example 61, 2-{5-[(2-methoxyethyl)(methyl)amino]-2H-pyrazolo[3,4-d][1,3]thiazol-2-yl}-3,5-dimethylphenol], the pIC50 was below 5.00 in assay [1] (setting [3]) and 5.70 in assay [2].

For the compound `Cc1cc(C)c(-n2cc3sc(N[C@H]4CNC[C@H](F)C4)nc3n2)c(O)c1` [Example 62, 2-(5-{[(3R,5R)-5-fluoropiperidin-3-yl]amino}-2H-pyrazolo[3,4-d][1,3]thiazol-2-yl)-3,5-dimethylphenol], the pIC50 in assay [1] (setting [3]) was below 5.00; in assay [2] it was 6.92.

On to `Cc1cnc(-n2cc3sc(N[C@@H]4CCCN(C)C4)nc3n2)c(O)c1` [Example 63, 5-methyl-2-(5-{[(3R)-1-methylpiperidin-3-yl]amino}-2H-pyrazolo[3,4-d][1,3]thiazol-2-yl)pyridin-3-ol], for which the pIC50 in assay [1] (setting [3]) was below 5.00; in assay [2], 5.47.

Turning to `Cc1cc(O)c(-n2cc3sc(NC[C@@H](C)O)nc3n2)c(C2CC2)c1` [Example 64, 3-cyclopropyl-2-(5-{[(2R)-2-hydroxypropyl]amino}-2H-pyrazolo[3,4-d][1,3]thiazol-2-yl)-5-methylphenol], the pIC50 in assay [1] (setting [3]) is below 5.00; in assay [2], 7.11.

`Cc1cc(O)c(-n2cc3sc(N[C@@H]4C[C@@H](F)CN(C)C4)nc3n2)c(C2CC2)c1` [Example 65, 3-cyclopropyl-2-(5-{[(3R,5R)-5-fluoro-1-methylpiperidin-3-yl]amino}-2H-pyrazolo[3,4-d][1,3]thiazol-2-yl)-5-methylphenol]: the negative-log IC50 (pIC50) in assay [1] (setting [3]) was below 4.52; in assay [2], 8.08.

For `Cc1cc(C)c(-n2cc3sc(NCC(C)(C)O)nc3n2)c(O)c1` [Example 66, 2-{5-[(2-hydroxy-2-methylpropyl)amino]-2H-pyrazolo[3,4-d][1,3]thiazol-2-yl}-3,5-dimethylphenol], the pIC50 in assay [1] (setting [3]) was below 4.52; in assay [2] it was 6.60.

As to `Cc1cc(C)c(-n2cc3sc(N[C@@H]4CCN(CC(F)F)C4)nc3n2)c(O)c1` [Example 67, 2-(5-{[1-(2,2-difluoroethyl)pyrrolidin-3-yl]amino}-2H-pyrazolo[3,4-d][1,3]thiazol-2-yl)-3,5-dimethylphenol], the pIC50 was below 4.52 in assay [1] (setting [3]) and 6.02 in assay [2].

Turning to `Cc1cc(C)c(-n2cc3sc(NC4CCN(C(=O)CC(F)F)C4)nc3n2)c(O)c1` (stereo not shown) [Example 68, 3,3-difluoro-1-(3-{[2-(2-hydroxy-4,6-dimethylphenyl)-2H-pyrazolo[3,4-d][1,3]thiazol-5-yl]amino}pyrrolidin-1-yl)propan-1-one], the pIC50 was below 5.00 in assay [1] (setting [3]) and 6.66 in assay [2].

Regarding `Cc1cc(C)c(-n2cc3sc(NC4CCN(C(=O)OCC(Cl)(Cl)Cl)C4)nc3n2)c(O)c1` (stereo not shown) [Example 69, 2,2,2-trichloroethyl 3-{[2-(2-hydroxy-4,6-dimethylphenyl)-2H-pyrazolo[3,4-d][1,3]thiazol-5-yl]amino}pyrrolidine-1-carboxylate], the values for the pIC50 in assay [1] (setting [3]) and in assay [2] were below 5.00 and 6.60, respectively.

Consider `Cc1cc(C)c(-n2nc3nc(N[C@@H]4C[C@@H](F)CN(C)C4)sc3c2C)c(O)c1` [Example 70, 2-(5-{[(3R,5R)-5-fluoro-1-methylpiperidin-3-yl]amino}-3-methyl-2H-pyrazolo[3,4-d][1,3]thiazol-2-yl)-3,5-dimethylphenol], for which the pIC50 was below 4.52 in assay [1] (setting [3]) and 7.23 in assay [2].

As to `CN1C[C@H](F)C[C@@H](Nc2nc3nn(-c4c(O)cc(Cl)cc4C(F)F)cc3s2)C1` [Example 75, 5-chloro-3-(difluoromethyl)-2-(5-{[(3R,5R)-5-fluoro-1-methylpiperidin-3-yl]amino}-2H-pyrazolo [3,4-d][1,3]thiazol-2-yl)phenol], the pIC50 was below 4.52 in assay [1] (setting [3]) and 7.80 in assay [2].

Turning to `CO[C@@H]1C[C@@H](Nc2nc3nn(-c4c(C)cc(C)cc4O)cc3s2)CN(C)C1` [Example 76], the pIC50 is below 4.52 in assay [1] (setting [3]) and 5.80 in assay [2].

For the compound `Cc1cc(C)c(-n2cc3sc(NC4CCN(C(=O)OCc5ccccc5)C4)nc3n2)c(O)c1` (stereo not shown) [Example 77, benzyl 3-{[2-(2-hydroxy-4,6-dimethylphenyl)-2H-pyrazolo[3,4-d][1,3]thiazol-5-yl]amino}pyrrolidine-1-carboxylate], the negative-log IC50 (pIC50) was below 5.00 in assay [1] (setting [3]) and 6.33 in assay [2].

As for `CCN1C[C@H](F)C[C@@H](Nc2nc3nn(-c4c(O)cc(Cl)cc4C(F)F)cc3s2)C1` [Example 78, 5-chloro-3-(difluoromethyl)-2-(5-{[(3R,5R)-1-ethyl-5-fluoropiperidin-3-yl]amino}-2H-pyrazolo[3,4-d][1,3]thiazol-2-yl)phenol], the pIC50 was below 5.00 in assay [1] (setting [3]) and 8.37 in assay [2].

Turning to `Cc1cc(C)c(-n2cc3sc(N[C@@H]4CN(C)C[C@H]4F)nc3n2)c(O)c1` [Example 79, 2-(5-{[(3R,4R)-4-fluoro-1-methylpyrrolidin-3-yl]amino}-2H-pyrazolo[3,4-d][1,3]thiazol-2-yl)-3,5-dimethylphenol], the pIC50 was below 4.52 in assay [1] (setting [3]) and 5.96 in assay [2].

On to `Cc1cc(C)c(-n2cc3sc(N[C@H]4CN(C)C[C@@H]4F)nc3n2)c(O)c1` [Example 80, 2-(5-{[(3S,4S)-4-fluoro-1-methylpyrrolidin-3-yl]amino}-2H-pyrazolo[3,4-d][1,3]thiazol-2-yl)-3,5-dimethylphenol], for which the pIC50 in assay [1] (setting [3]) was below 4.52; in assay [2], 7.43.

With `Cc1cc(C)c(-n2cc3sc(NC4CCN(C)CC4)nc3n2)c(O)c1` [Example 81, 3,5-dimethyl-2-{5-[(1-methylpiperidin-4-yl)amino]-2H-pyrazolo[3,4-d][1,3]thiazol-2-yl}phenol], the pIC50 in assay [1] (setting [3]) was below 4.52; in assay [2], 5.51.

Consider `Cc1cc(Cl)cc(O)c1-n1cc2c(nc(N[C@@H]3C[C@@H](F)CN(C)C3)n2C)n1` [Example 82, 5-chloro-2-[5-{[(3R,5R)-5-fluoro-1-methylpiperidin-3-yl]amino}-4-methylimidazo[4,5-c]pyrazol-2(4H)-yl]-3-methylphenol], for which the figures for the pIC50 in assay [1] (setting [3]) and in assay [2] were below 4.52 and 7.31, respectively.

With `CCC(O)CNc1nc2nn(-c3c(C)cc(C)cc3O)cc2s1` (stereo not shown) [Example 83, 2-{5-[(2-hydroxybutyl)amino]-2H-pyrazolo[3,4-d][1,3]thiazol-2-yl}-3,5-dimethylphenol], the pIC50 is below 4.52 in assay [1] (setting [3]) and 6.09 in assay [2].

With `Cc1cc(C)c(-n2cc3sc(NCC4(O)CC4)nc3n2)c(O)c1` [Example 84, 2-(5-{[(1-hydroxycyclopropyl)methyl]amino}-2H-pyrazolo[3,4-d][1,3]thiazol-2-yl)-3,5-dimethylphenol], the pIC50 in assay [1] (setting [3]) was below 4.52; in assay [2], 6.42.

As for `CC(=O)N1CCC(Nc2nc3nn(-c4c(C)cc(C)cc4O)cc3s2)C1` (stereo not shown) [Example 85, 1-(3-{[2-(2-hydroxy-4,6-dimethylphenyl)-2H-pyrazolo[3,4-d][1,3]thiazol-5-yl]amino}pyrrolidin-1-yl)ethan-1-one], the pIC50 in assay [1] (setting [3]) is below 4.52; in assay [2] it was 6.46.

For `CNC(=O)N1CCC(Nc2nc3nn(-c4c(C)cc(C)cc4O)cc3s2)C1` (stereo not shown) [Example 86, 3-{[2-(2-hydroxy-4,6-dimethylphenyl)-2H-pyrazolo[3,4-d][1,3]thiazol-5-yl]amino}-N-methylpyrrolidine-1-carboxamide], the pIC50 in assay [1] (setting [3]) was below 4.52; in assay [2], 6.52.

In the case of `CCc1cc(C)cc(O)c1-n1cc2sc(NC[C@@H](C)O)nc2n1` [Example 87, 3-ethyl-2-(5-{[(2R)-2-hydroxypropyl]amino}-2H-pyrazolo[3,4-d][1,3]thiazol-2-yl)-5-methylphenol], the pIC50 was below 4.52 in assay [1] (setting [3]) and 7.02 in assay [2].

As for `COCC(=O)N1CCC(Nc2nc3nn(-c4c(C)cc(C)cc4O)cc3s2)C1` (stereo not shown) [Example 89, 1-(3-{[2-(2-hydroxy-4,6-dimethylphenyl)-2H-pyrazolo[3,4-d][1,3]thiazol-5-yl]amino}pyrrolidin-1-yl)-2-methoxyethan-1-one], the results for the pIC50 in assay [1] (THP-1 macrophages) and in assay [2] were below 4.52 and 6.26, respectively.

In the case of `Cc1cc(C)c(-n2cc3sc(NC4CCN(C(=O)C(F)F)C4)nc3n2)c(O)c1` (stereo not shown) [Example 90, 2,2-difluoro-1-(3-{[2-(2-hydroxy-4,6-dimethylphenyl)-2H-pyrazolo[3,4-d][1,3]thiazol-5-yl]amino}pyrrolidin-1-yl)ethan-1-one], the pIC50 was below 5.00 in assay [1] (setting [3]) and 6.27 in assay [2].

As for `COC(=O)N1CCC(Nc2nc3nn(-c4c(C)cc(C)cc4O)cc3s2)C1` (stereo not shown) [Example 91, methyl 3-{[2-(2-hydroxy-4,6-dimethylphenyl)-2H-pyrazolo[3,4-d][1,3]thiazol-5-yl]amino}pyrrolidine-1-carboxylate], the pIC50 in assay [1] (setting [3]) was below 5.00; in assay [2], 6.18.

Take `Cc1cc(C)c(-n2cc3sc(NC4CCN(C)C4)nc3n2)c(O)c1` (stereo not shown) [Example 92, 3,5-dimethyl-2-{5-[(1-methylpyrrolidin-3-yl)amino]-2H-pyrazolo[3,4-d][1,3]thiazol-2-yl}phenol]: the pIC50 in assay [1] (setting [3]) was below 4.52; in assay [2] it was 6.57.

Regarding `Cc1cc(O)c(-n2cc3sc(NC[C@@H](C)O)nc3n2)c(C(C)C)c1` [Example 93, 2-(5-{[(2R)-2-hydroxypropyl]amino}-2H-pyrazolo[3,4-d][1,3]thiazol-2-yl)5-methyl-3-(propan-2-yl)phenol], the pIC50 in assay [1] (setting [3]) is below 4.52; in assay [2], 6.55.
